# Results published in US6541237B1, “A-1,4-glucan lyase and its use in the production of 1.5-androfructose” (Danisco A/S, priority 1994, dated 2003).
# B1: MV-lyase: lyase isolated from the fungus Morchella vulgaris, ATCC (protein)
# chain: MAGLSDPLNFCKAEDYYAAAKGWSGPQKIIRYDQTPPQGTKDPKSWHAVNLPFDDGTMCVVQFVRPCVWRVRYDPSVKTSDEYGDENTRTIVQDYMTTLVGNLDIFRGLTWVSTLEDSGEYYTFKSEVTAVDETERTRNKVGDGLKIYLWKNPFRIQVVRLLTPLVDPFPIPNVANATARVADKVVWQTSPKTFRKNLHPQHKMLKDTVLDIIKPGHGEYVGWGEMGGIEFMKEPTFMNYFNFDNMQYQQVYAQGALDSREPLYHSDPFYLDVNSNPEHKNITATFIDNYSQIAIDFGKTNSGYIKLGTRYGGIDCYGISADTVPEIVRLYTGLVGRSKLKPRYILGAHQACYGYQQESDLHAVVQQYRDTKFPLDGLHVDVDFQDNFRTFTTNPITFPNPKEMFTNLRNNGIKCSTNITPVISIRDRPNGYSTLNEGYDKKYFIMDDRYTEGTSGDPQNVRYSFYGGGNPVEVNPNDVWARPDFGDNYDFPTNFNCKDYPYHGGVSYGYGNGTPGYYPDLNREEVRIWWGLQYEYLFNMGLEFVWQDMTTPAIHSSYGDMKGLPTRLLVTADSVTNASEKKLAIESWALYSYNLHKATFHGLGRLESRKNKRNFILGRGSYAGAYRFAGLWTGDNASTWEFWKISVSQVLSLGLNGVCIAGSDTGGFEPARTEIGEEKYCSPELLIRWYTGSFLLPWLRNHYVKKDRKWFQEPYAYPKHLETHPELADQAWLYKSVLEICRYWVELRYSLIQLLYDCMFQNVVDGMPLARSMLLTDTEDTTFFNESQKFLDNQYMAGDDILVAPILHSRNEVPGENRDVYLPLFHTWYPSNLRPWDDQGVALGNPVEGGSVINYTARIVAPEDYNLFHNVVPVYIREGAIIPQIQVRQWIGEGGPNPIKFNIYPGKDKEYVTYLDDGVSRDSAPDDLPQYREAYEQAKVEGKDVQKQLAVIQGNKTNDFSASGIDKEAKGYHRKVSIKQESKDKTRTVTIEPKHNGYDPSKEVGNYYTIILWYAPGFDGSIVDVSQATVNIEGGVECEIFKNTGLHTVVVNVKEVIGTTKSVKITCTTA
# Legend:
# [1] = tested on: α-1,4-glucan lyase; experiment: Degradation studies: AF released by the lyase from various substrates; format: biochemical, Gracilariopsis lemaneiformis; conditions: for AF released: substrate 10 mg/ml, 10 mM HOAc-NaOAc pH 3.8, 40 min at 45° C., 100 ul
# Experimental: Reaction conditions: The reaction mixture contained 10 mM of HOAc-NaOAc (pH 3.8). The substrate concentration was 10 mg/ml. The final volume was 100 ul after the addition of lyase and water. The reaction time was 40 min at 45° C.
# [2] = tested on: α-1,4-glucan lyase; experiment: Substrate specificity for oligosaccharides by Dionex HPLC; format: biochemical; conditions: 8 mg/ml substrate, 0.1M MES pH 6.3, 60 min at 30° C.
# Experimental: The specificity of α-1,4-glucan lyase for different oligosaccharides was tested. […] The oligosaccharides were dissolved in H2O at a concentration of 8 mg/ml. The enzyme assay contained 150 μl substrate G2/G3/G4/G5/G6/G7, 120 μl 0.1M MES pH 6.3 and 30 μl purified enzyme. The reaction mixture was incubated for 60 min at 30° C. Afterwards the reaction was stopped by boiling for 3 min and 900 μl absolute ethanol was added for precipitation. After centrifugation at 20.000×g for 5 min at 4° C. the supernatant was transferred to a new eppendorf tube and lyophilized.
# The freeze-dried samples were dissolved in 1000 μl H2O and were filtrated through a 0.22 μm Millipore filter before 25 μl of the sample was loaded on the Dionex HPLC.
# Analyses were performed on a Dionex 4500i chromatography system consisting of a GPM-2 pump and a PED detector which was used in pulse-amperometric detection mode. The anion exchange columns were a CarboPac PA-100 (4×250 mm) and a CarboPac PA-100 guard column (3×25 mm) from Dionex. The eluent were 200 mM sodium hydroxide (A), 500 mM sodium acetate (B) and 18 M ohm de-ionized water (C). The pump was programmed in 2 different ways, method no. 1 and method no.
# [3] = tested on: α-1,4-glucan lyase; experiment: Reversible and irreversible inhibitors of the lyase; format: biochemical, Gracilariopsis lemaneiformis; conditions: for decrease of lyase activity (inhibition): 0.1 M inhibitor; for inhibition (second, untitled table): lyase not stated
# [4] = Induction period of yogurt salad dressing with 50% oil
# Source text: For each temperature defined as PF=IP of the oil with added antioxidant/IP of the same oil without added antioxidant
# [5] = Oxidation of AF by air; format: physicochemical; conditions: especially at high temperature, high AF concentration, long exposure
# Source text: Catalase is needed to dispel H2O2 formed. H2O2 will oxidize AF into two new compounds which are at present of unknown structure. The other impurities in the AF preparation are the oxidation products of AF. […] Gluconic acid was removed together with the buffer salts by ion exchange chromatography.
# [6] = tested on: α-1,4-glucan lyase; experiment: Formation of AF from amylopectin (HPLC), end-product inhibition; format: biochemical; conditions: equal AF after 30 and 120 min incubation
# Experimental: α-1,4-glucan lyase according to the present invention hydrolyses starch to the end-product 1,5-anhydrofructose. The end-product was shown by HPLC, method 2. The enzyme assay contained 500 μl amylopectin (20 mg/ml, dissolved in H2O), 400 μl 0.1 M MES pH 6.3 and 100 μl purified enzyme. The reaction mixture was incubated at 30° C. and the reaction was stopped by boiling after 30 or 120 min incubation. High-molecular oligosaccharides were precipitated by addition of 3 vol abs. ethanol and the sample was centrifuged and freeze-dried as described above. The samples were dissolved in 125 μl H2O and 25 μl were applied on the HPLC column.
# [7] = Induction period of 50% mayonnaise in bomb calorimeter; conditions: +500 ppm in mayonnaise; 80° C., pure O2
# Experimental: In the test procedure the anti-oxidants were added to the mayonnaise to provide an anti-oxidant concentration in the order of about 500 ppm. The mayonnaise was then placed in a bomb calorimeter at temperature 80° C. containing pure O2. An induction period to the onset of substantial oxidation of the product is then measured.
# [8] = Reduction of 3,5-dinitrosalicylic acid; format: physicochemical
# [9] = ESR analysis of hydroxyl radical scavenging (Fenton reaction, DMPO spin trap); conditions: for Peak height of ESR-spectra [120 s] / Peak height of ESR-spectra [300 s]: H2O2 0.17 mM, Fe2+ 4.8 μM
# Experimental: Hydroxyl radicals were generated by a Fenton reaction with H2O2 (0.17 mM) and FeSO4 (4.8 μM). The generated radicals were trapped by 5,5-dimethyl-1-pyrroline N-oxide (DMPO, 9.7 mM). AF was added in concentrations of 1.3 mM and 6.3 mM. A water soluble extract of rosemary (Rosmarinus officinalis L.) was analyzed in a concentration of 0.25 mg/ml (in grams equivalent to 1.26 mM AF). Measurements were carried out at room temperature (20±1° C.) after 120 s and repeated for the same reaction mixture after 300 s with the following spectrometer settings: Center field 3475.60 G; sweep width 55 G; microwave power 20 mW; modulation frequency 100 kHz; modulation amplitude 1.01 G; receiver gain 1.00·10^5; conversion time 81.92 ms time constant 163.84 ms and sweep time 83.89 s.
# The spin adduct gives rise to a characteristic 1:2:2:1 ESR spectrum. The peak height of the spectrum is proportional to the quantitative amount of generated spin adduct. Addition of both DMPO and AF will set up a competition between the spin trap and AF. A reduction of peak height will indicate a good scavenging activity of AF.
# [10] = Electrochemical oxygen consumption in methyl linoleate emulsion; conditions: AF 15, 146 and 680 μM; metmyoglobin initiated; 25.0° C.
# Experimental: The activity of AF was investigated in a methyl linoleate emulsion as described by Jorgensen and Skibsted (Z. Lebensm. Unters. Forsch. (1993) 196: 423-429) with minor modifications: To 5.00 ml of a 1.33 mM methyl linoleate emulsion in 5.0 mM aqueous phosphate buffer with pH=5.8 and 0.2 w/w % Tween 20 as emulsifier was added AF in the following concentrations: 0, 15, 146 and 680 μM. The oxidation in the system was initiated by addition of 50 μl […] metmyoglobin (MMb) final concentration 0.26 mM. Immediately after initiating the reaction the sample was injected to a thermostated (25.0±0.1° C.) 70 μl closed cell, effectively excluding diffusion of oxygen into the system. The oxygen consumption was measured by a Clark electrode, which was connected to a PC data collection program. The relative oxygen concentration (%) was registered every 30 s.
# [11] = tested on: α-1,4-glucan lyase
# [12] = tested on: α-1,4-glucan lyase; experiment: Effect of different reaction media upon production of AF by the lyase; format: biochemical, Gracilariopsis lemaneiformis; conditions: reaction medium
# Source text: The production of AF using either pure water or 0.85% NaCl as reaction medium decreased the yield.
# [13] = tested on: lyase and pullulanase; experiment: Cooperation of pullulanase and lyase in the production of AF; format: biochemical; conditions: 2% substrate, 30° C., 1 day
# Experimental: The reaction mixture contained 0.3 ml 2% potato amylopectin (Sigma) in water or 0.3 ml 2% soluble starch (Merck), 2 μl lyase and 0.36 units pullulanase (BM) as indicated.
# The reaction was carried out at 30° C. for 1 day. At the end of the reaction, samples were taken for AF and Glc analysis.
# [14] = tested on: α-1,4-glucan lyase; experiment: Km of the lyase; format: biochemical, Gracilariopsis lemaneiformis; conditions: substrate of the lyase
# Target sequence in this assay (as listed by the source): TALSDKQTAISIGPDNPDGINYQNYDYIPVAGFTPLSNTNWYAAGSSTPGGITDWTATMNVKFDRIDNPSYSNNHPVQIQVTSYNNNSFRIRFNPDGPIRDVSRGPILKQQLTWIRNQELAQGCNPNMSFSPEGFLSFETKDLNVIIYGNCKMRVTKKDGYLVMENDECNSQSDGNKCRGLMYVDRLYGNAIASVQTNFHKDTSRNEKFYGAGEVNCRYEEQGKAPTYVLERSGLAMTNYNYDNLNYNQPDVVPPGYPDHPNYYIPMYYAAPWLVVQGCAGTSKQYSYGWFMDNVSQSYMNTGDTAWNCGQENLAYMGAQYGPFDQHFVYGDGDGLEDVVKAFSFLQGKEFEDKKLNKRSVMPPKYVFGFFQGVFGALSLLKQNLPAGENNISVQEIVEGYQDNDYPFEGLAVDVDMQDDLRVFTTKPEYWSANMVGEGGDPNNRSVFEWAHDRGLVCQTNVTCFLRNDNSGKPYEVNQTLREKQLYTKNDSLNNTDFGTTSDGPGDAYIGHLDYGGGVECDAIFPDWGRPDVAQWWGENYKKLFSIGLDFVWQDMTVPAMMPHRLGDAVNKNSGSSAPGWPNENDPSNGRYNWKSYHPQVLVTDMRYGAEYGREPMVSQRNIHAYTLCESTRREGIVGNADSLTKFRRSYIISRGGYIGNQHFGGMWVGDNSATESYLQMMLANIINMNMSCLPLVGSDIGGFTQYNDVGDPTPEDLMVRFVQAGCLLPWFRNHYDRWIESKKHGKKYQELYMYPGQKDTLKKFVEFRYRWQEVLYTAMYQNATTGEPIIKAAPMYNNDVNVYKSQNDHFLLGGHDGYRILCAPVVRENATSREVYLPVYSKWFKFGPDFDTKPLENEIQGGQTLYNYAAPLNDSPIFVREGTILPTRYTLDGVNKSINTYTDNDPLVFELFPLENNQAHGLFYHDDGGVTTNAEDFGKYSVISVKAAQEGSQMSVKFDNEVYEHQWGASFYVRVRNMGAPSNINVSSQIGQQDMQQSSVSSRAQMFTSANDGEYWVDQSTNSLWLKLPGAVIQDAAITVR
# [15] = tested on: α-1,4-glucan lyase; experiment: Effect of substrate on the stability of the lyase; format: biochemical; conditions: soluble and immobilized enzyme system
# Target sequence in this assay (as listed by the source): as above
# [16] = Isoelectric focusing of the α-1,4-glucan lyases; format: physicochemical; conditions: isoelectrofocusing, pH gradient 3-9
# Source text: The relative migration rates were estimated from native PAGE on gels with 8-25% gradient; the pI values were estimated by isoelectrofocusing on gels with a pH gradient of 3-9.
# FIG. 2. Isoelectric focusing of the α-1,4-glucan lyases on a gel with a pH gradient of pH 3 to pH 9. The gel was stained with PhastGel Blue R.
# [17] = lyase added, pullulanase omitted
# [18] = lyase omitted, pullulanase added
molecule,measurement,setting,value
OC[C@H]1O[C@H](O[C@H]2[C@H](O)[C@@H](O)C(O)O[C@@H]2CO)[C@H](O)[C@@H](O)[C@@H]1O (mixture of isomers) [Maltose],activity of the lyase towards maltosaccharides,[1]; in words,low activity
same,AF released,[1],657 nmol
same,"1,5-anhydrofructose formation from substrate",[2],"almost no 1,5-anhydrofructose was formed"
same,decrease of lyase activity (inhibition),[3]; substrate amylopectin 1% (10 mg/ml),73.4%
same,decrease of lyase activity (inhibition),[3]; substrate amylopectin 2%,67.2%
same,decrease of lyase activity (inhibition),[3]; substrate glycogen 1% (10 mg/ml),48.8%
same,decrease of lyase activity (inhibition),[3]; substrate glycogen 2%,49.7%
same,"inhibition (second, untitled table)",[3]; substrate amylopectin (1%),80%
same,"inhibition (second, untitled table)",[3]; substrate glycogen (1%),57%
"O=C1CO[C@H](CO)[C@@H](O)[C@@H]1O [AF, 1,5-D-anhydrofructose]",IP hours (Induction Period),[4]; 500 ppm in yogurt salad dressing,39.5 h
same,PF (Protection Factor),"[4]; 500 ppm, IP with antioxidant / IP without",1.06
same,oxidation by air-level of oxygen,[5],can slowly be oxidized
same,inhibition of enzyme activity by end-product,[6],not inhibited
same,IP hours (Induction Period),[7],"32,0 hours"
same,reducing agent (antioxidant) activity,[8],"can easily reduce 3,5-dinitrosalicylic acid"
same,scavenging activity of hydroxyl radicals,[9]; 1.3 mM AF,no scavenging activity
same,Peak height of ESR-spectra [120 s],[9]; 1.3 mM AF,2634
same,Peak height of ESR-spectra [300 s],[9]; 1.3 mM AF,2545
same,scavenging activity of hydroxyl radicals,[9]; 6.3 mM AF,peak height is reduced
same,Peak height of ESR-spectra [120 s],[9]; 6.3 mM AF,1781
same,Peak height of ESR-spectra [300 s],[9]; 6.3 mM AF,1900
same,oxygen consumption curve,[10],lag-phase is observed
O=C(O)CN(CCN(CC(=O)O)CC(=O)O)CC(=O)O [EDTA],effect on lyase activity,[11]; up to 20 mM in the reaction mixture,little effect
[Cl-].[Na+] [NaCl],increase of AF yield,[11]; 0.85% (0.145 M) in the reaction mixture,up to 1 fold
O [Water],AF yield,[12]; reaction time 1 day,46 µmol
same,AF yield,[12]; reaction time 3 days,128 µmol
same,AF yield,[12]; reaction time 8 days,217 µmol
Amylopectin,AF Yield (%),[13]; [17],48.0%
same,Glc Yield (%),[13]; [17],0%
same,AF Yield (%),[13]; lyase and pullulanase added,71.3%
same,Glc Yield (%),[13]; lyase and pullulanase added,3.7%
same,AF Yield (%),[13]; [18],0%
same,Glc Yield (%),[13]; [18],0.33%
same,AF released,[1],732 nmol
same,Km,[14],3.76 mg/mL
same,effect on stability of the lyase,[15],stabilizing effect
Glycogen,AF released,[1],592 nmol
same,Km,[14],3.37 mg/mL
B1,pI,[16],4.4
